What is called IC50 is the concentration that inhibits the measured activity by half. Read a low IC50 as greater potency in that assay.

This is an account of results in US9376425B2, “Heterocyclic compounds as MDM2 inhibitors for the treatment of cancer” (AMGEN INC., priority 2011, dated 2016).

For the assay, the target named is T1, human MDM2 (GST-hMDM2 1-188), interaction with biotinylated-p53 (1-83) (Homo sapiens, UniProt Q00987).
T1 construct: Amino acid residues 1-188 of human MDM2 were expressed; made in house; host or cells: Escherichia coli
T1 sequence (Q00987 1-188): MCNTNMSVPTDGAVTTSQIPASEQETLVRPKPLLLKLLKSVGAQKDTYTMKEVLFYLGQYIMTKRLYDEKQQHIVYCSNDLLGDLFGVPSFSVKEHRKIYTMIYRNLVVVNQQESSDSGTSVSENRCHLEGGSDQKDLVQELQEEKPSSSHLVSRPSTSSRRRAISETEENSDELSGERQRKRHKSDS
The assay can be described thus: improved HTRF assay (HTRF2 assay), inhibition of HDM2-p53 interaction. Type of assay: binding. Conditions: 0.2 nM GST-hMDM2, 0.5 nM biotinylated-p53, 100 mM KF. How it is done:
Residues 1-83 of human p53 were expressed as an amino-terminal AviTag™-TrxA-6xHis fusion protein (biotinylated p53) in E. coli. Each protein was purified from cell paste by affinity chromatography.
Specifically, 10 uL of GST-hMDM2 was incubated with 10 ul of diluted compound (various concentrations, serially diluted) in 10% DMSO for 20 minutes at room temperature. 20 uL of biotinylated-p53 was added to the GST-hMDM2+ compound mixture, and then incubated at room temperature for 60 min. 10 uL of detection buffer consisting of SA-XLent, anti-GST cryptate antibody and KF was added to GST-hMDM2, biotinylated-p53 and compound reaction and left at room temperature to reach equilibrium for >4 hrs. The final concentration of DMSO in the reaction was 2%. Time-resolved fluorescence readings were measured on a microplate multilabel reader. Percentage of inhibition was calculated relative to nutlin-3.
On the technique in general: In TR-FRET formats the signal depends on donor and acceptor labels being close together.
In turn, `CC[C@@H](CN(c1ccccc1F)S(=O)(=O)C1CC1)N1C(=O)[C@@H](CC(=O)NS(=O)(=O)C(C)C)O[C@H](c2cccc(Cl)c2)[C@H]1c1ccc(Cl)cc1` (single isomer, unassigned) [Example 259, 2-((2R,5R,6R)-6-(3-chlorophenyl)-5-(4-chlorophenyl)-4-((S)-1-(N-(2-fluorophenyl)cyclopropanesulfonamido)butan-2-yl)-3-oxomorpholin-2-yl)-N-(isopropylsulfonyl)acetamide or 2-((2S,5R,6R)-6-(3-chlorophenyl)-5-(4-chlorophenyl)-4-((S)-1-(N-(2-fluorophenyl)cyclopropanesulfonamido)butan-2-yl)-3-oxomorpholin-2-yl)-N-(isopropylsulfonyl)acetamide] gave a 50% inhibitory concentration (IC50) of 1 nM. Molecule `O=C(C[C@H]1O[C@H](c2cccc(Cl)c2)[C@@H](c2ccc(Cl)cc2)N([C@H](CN(c2ccccc2F)S(=O)(=O)C2CC2)C2CC2)C1=O)Nc1ccccn1` (single isomer, unassigned) [Example 368, 2-((2R,5R,6R)-6-(3-Chlorophenyl)-5-(4-chlorophenyl)-4-((S)-1-cyclopropyl-2-(N-(2-fluorophenyl)cyclopropanesulfonamido)ethyl)-3-oxomorpholin-2-yl)-N-(pyridin-2-yl)acetamide or 2-((2S,5R,6R)-6-(3-chlorophenyl)-5-(4-chlorophenyl)-4-((S)-1-cyclopropyl-2-(N-(2-fluorophenyl)cyclopropanesulfonamido)ethyl)-3-oxomorpholin-2-yl)-N-(pyridin-2-yl)acetamide] showed an IC50 below 1 nM. The result for `CC[C@@H](CN(c1ccccc1F)S(=O)(=O)C1CC1)N1C(=O)[C@@H](CCC(=O)O)O[C@H](c2cccc(Cl)c2)[C@H]1c1ccc(Cl)cc1` (single isomer, unassigned) [Example 263, 3-((2R,5R,6R)-6-(3-chlorophenyl)-5-(4-chlorophenyl)-4-((S)-1-(N-(2-fluorophenyl)cyclopropanesulfonamido)butan-2-yl)-3-oxomorpholin-2-yl)propanoic acid or 3-((2S,5R,6R)-6-(3-chlorophenyl)-5-(4-chlorophenyl)-4-((S)-1-(N-(2-fluorophenyl)cyclopropanesulfonamido)butan-2-yl)-3-oxomorpholin-2-yl)propanoic acid] reads 2 nM; that for `CC(C)S(=O)(=O)C[C@H](C1CC1)N1C(=O)[C@@H](CC(=O)O)O[C@H](c2cccc(Cl)c2)[C@H]1c1ccc(Cl)cc1` (single isomer, unassigned) [Example 156, 2-((2R,5R,6R)-6-(3-chlorophenyl)-5-(4-chlorophenyl)-4-((S)-1-cyclopropyl-2-(isopropylsulfonyl)ethyl)-3-oxomorpholin-2-yl)acetic acid or 2-((2S,5R,6R)-6-(3-chlorophenyl)-5-(4-chlorophenyl)-4-((S)-1-cyclopropyl-2-(isopropylsulfonyl)ethyl)-3-oxomorpholin-2-yl)acetic acid], 1 nM. In turn, `O=C(O)C[C@H]1O[C@H](c2cccc(Cl)c2)[C@@H](c2ccc(Cl)cc2)N([C@H](CS(=O)(=O)c2ccncc2)C2CC2)C1=O` (single isomer, unassigned) [Example 287, 2-((2R,5R,6R)-6-(3-Chlorophenyl)-5-(4-chlorophenyl)-4-((S)-1-cyclopropyl-2-(pyridin-4-ylsulfonyl)ethyl)-3-oxomorpholin-2-yl)acetic acid or 2-((2S,5R,6R)-6-(3-chlorophenyl)-5-(4-chlorophenyl)-4-((S)-1-cyclopropyl-2-(pyridin-4-ylsulfonyl)ethyl)-3-oxomorpholin-2-yl)acetic acid] showed an IC50 of 5 nM. With `CC(C)[C@@H](CN(c1ccccc1F)S(=O)(=O)C(C)C)N1C(=O)[C@@H](CC(=O)O)O[C@H](c2cccc(Cl)c2)[C@H]1c1ccc(Cl)cc1` (single isomer, unassigned) [Example 198, 2-((2R,5R,6R)-6-(3-chlorophenyl)-5-(4-chlorophenyl)-4-((S)-1-(N-(2-fluorophenyl)propan-2-ylsulfonamido)-3-methylbutan-2-yl)-3-oxomorpholin-2-yl)acetic acid or 2-((2S,5R,6R)-6-(3-chlorophenyl)-5-(4-chlorophenyl)-4-((S)-1-(N-(2-fluorophenyl)propan-2-ylsulfonamido)-3-methylbutan-2-yl)-3-oxomorpholin-2-yl)acetic acid] the figure was 1 nM. The molecule `CC(C)(C)S(=O)(=O)C[C@H](C1CC1)N1C(=O)[C@@H](CC(=O)NCC#N)O[C@H](c2cccc(Cl)c2)[C@H]1c1ccc(Cl)cc1` (single isomer, unassigned) [Example 349, 2-((2R,5R,6R)-4-((S)-2-(tert-Butylsulfonyl)-1-cyclopropylethyl)-6-(3-chlorophenyl)-5-(4-chlorophenyl)-3-oxomorpholin-2-yl)-N-(cyanomethyl)acetamide or 2-((2S,5R,6R)-4-((S)-2-(tert-butylsulfonyl)-1-cyclopropylethyl)-6-(3-chlorophenyl)-5-(4-chlorophenyl)-3-oxomorpholin-2-yl)-N-(cyanomethyl)acetamide] yielded an IC50 of 1 nM. On to `CC[C@@H](CN(c1ccccn1)S(=O)(=O)C1CC1)N1C(=O)[C@H](CC(=O)O)O[C@H](c2cccc(Cl)c2)[C@H]1c1ccc(Cl)cc1` (single isomer, unassigned) [Example 180, 2-((2S,5R,6R)-6-(3-chlorophenyl)-5-(4-chlorophenyl)-3-oxo-4-((S)-1-(N-(pyridin-2-yl)cyclopropanesulfonamido)butan-2-yl)morpholin-2-yl)acetic acid or 2-((2R,5R,6R)-6-(3-chlorophenyl)-5-(4-chlorophenyl)-3-oxo-4-((S)-1-(N-(pyridin-2-yl)cyclopropanesulfonamido)butan-2-yl)morpholin-2-yl)acetic acid], for which the IC50 is below 1 nM. In turn, `CC[C@@H](CS(=O)(=O)CC1CC1)N1C(=O)[C@@H](CC(=O)O)O[C@H](c2cccc(Cl)c2)[C@H]1c1ccc(Cl)cc1` (single isomer, unassigned) [Example 190, 2-((2R,5R,6R)-6-(3-chlorophenyl)-5-(4-chlorophenyl)-4-((S)-1-((cyclopropylmethyl)sulfonyl)butan-2-yl)-3-oxomorpholin-2-yl)acetic acid or 2-((2S,5R,6R)-6-(3-chlorophenyl)-5-(4-chlorophenyl)-4-((S)-1-((cyclopropylmethyl)sulfonyl)butan-2-yl)-3-oxomorpholin-2-yl)acetic acid] displayed an IC50 of 3 nM. The result for `CC[C@@H](CN(c1ccccc1F)S(=O)(=O)C1CC1)N1C(=O)[C@@H]([C@@H](C)C(=O)O)O[C@H](c2cccc(Cl)c2)[C@H]1c1ccc(Cl)cc1` (single isomer, unassigned) [Example 253] reads 18 nM; that for `CC(C)(C)S(=O)(=O)C[C@H](C1CC1)N1C(=O)[C@@H](CCO)O[C@H](c2cccc(Cl)c2)[C@H]1c1ccc(Cl)cc1` (single isomer, unassigned) [Example 370, (2R,5R,6R)-4-((S)-2-(tert-Butylsulfonyl)-1-cyclopropylethyl)-6-(3-chlorophenyl)-5-(4-chlorophenyl)-2-(2-hydroxyethyl)morpholin-3-one or (2S,5R,6R)-4-((S)-2-(tert-butylsulfonyl)-1-cyclopropylethyl)-6-(3-chlorophenyl)-5-(4-chlorophenyl)-2-(2-hydroxyethyl)morpholin-3-one], 28 nM. The molecule `O=C(O)C[C@H]1O[C@H](c2cccc(Cl)c2)[C@@H](c2ccc(Cl)cc2)N([C@H](CN(c2ncccc2F)S(=O)(=O)C2CC2)C2CC2)C1=O` (single isomer, unassigned) [Example 188, 2-((2R,5R,6R)-6-(3-chlorophenyl)-5-(4-chlorophenyl)-4-((S)-1-cyclopropyl-2-(N-(3-fluoropyridin-2-yl)cyclopropanesulfonamido)ethyl)-3-oxomorpholin-2-yl)acetic acid or 2-((2S,5R,6R)-6-(3-chlorophenyl)-5-(4-chlorophenyl)-4-((S)-1-cyclopropyl-2-(N-(3-fluoropyridin-2-yl)cyclopropanesulfonamido)ethyl)-3-oxomorpholin-2-yl)acetic acid] displayed an IC50 below 1 nM. With `CC[C@@H](CN(c1ccccc1F)S(=O)(=O)C1CC1)N1C(=O)[C@@H](CC(=O)O)O[C@H](c2cccc(Cl)c2)[C@H]1c1ccc(Cl)s1` (single isomer, unassigned) [Example 216, 2-((2R,5S,6R)-6-(3-chlorophenyl)-5-(5-chlorothiophen-2-yl)-4-((S)-1-(N-(2-fluorophenyl)cyclopropanesulfonamido)butan-2-yl)-3-oxomorpholin-2-yl)acetic acid or 2-((2S,5S,6R)-6-(3-chlorophenyl)-5-(5-chlorothiophen-2-yl)-4-((S)-1-(N-(2-fluorophenyl)cyclopropanesulfonamido)butan-2-yl)-3-oxomorpholin-2-yl)acetic acid] the figure was below 1 nM. Consider `CC[C@@H](CS(=O)(=O)C(C)(C)C)N1C(=O)[C@@H](CNC(C)=O)O[C@H](c2cccc(Cl)c2)[C@H]1c1ccc(Cl)cc1` (single isomer, unassigned) [Example 379, N-(((2R,5R,6R)-4-((S)-1-(tert-Butylsulfonyl)butan-2-yl)-6-(3-chlorophenyl)-5-(4-chlorophenyl)-3-oxomorpholin-2-yl)methyl)acetamide or N-(42S,5R,6R)-4-((S)-1-(tert-butylsulfonyl)butan-2-yl)-6-(3-chlorophenyl)-5-(4-chlorophenyl)-3-oxomorpholin-2-yl)methyl)acetamide], for which the midpoint of inhibition, the IC50, lay at 82 nM.
